Assay results as given in patent publication US5302589A, “Heterocyclic inhibitors of 5-α-testosterone reductase” (Glaxo, Inc., priority 1992, dated 1994).

Target: T1, 5-α-reductase (Homo sapiens, UniProt P31213)
T1 construct: microsomes derived from human prostate tissue; from tissue; host or cells: human prostate tissue (BPH patients), microsomes
T1 sequence (P31213 1-254): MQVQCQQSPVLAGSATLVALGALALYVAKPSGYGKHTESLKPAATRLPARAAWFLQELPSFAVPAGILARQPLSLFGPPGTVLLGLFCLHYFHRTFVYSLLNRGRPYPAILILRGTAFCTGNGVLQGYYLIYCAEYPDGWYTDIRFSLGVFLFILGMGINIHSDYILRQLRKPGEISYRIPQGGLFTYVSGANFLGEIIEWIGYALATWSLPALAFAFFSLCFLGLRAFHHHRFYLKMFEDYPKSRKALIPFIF
Experiment: Steroid 5-α-reductase in vitro assay (prostatic microsomes, conversion of [3H]-testosterone to DHT)
Assay type: biochemical
Conditions: microsomes from human (BPH) prostate tissue; 100 nM [1,2,6,7-^3 H]-testosterone, 1 mM NADPH, 60 minutes at 37° C.; HPLC with radiochemical detection; read-out: 5-α-REDUCTASE in vitro INHIBITORY ACTIVITY IC50 Human
Description: Enzyme activity may be determined using microsomes derived from prostate tissue of benign prostatic hypertrophy (BPH) patients or from rat prostate tissue. Prostatic microsomes were prepared by homogenization of the tissue, followed by differential centrifugation of the homogenate. Microsome extracts were incubated with 100 nM [1,2,6,7-^3 H]-testosterone, 1 mM NADPH and varying amounts of the a compounds of Formula (I), i.e., a test compound, for 60 minutes at 37° C. Corresponding incubations were carried out with no test compound as a control study. The percentage of conversion of testosterone to DHT in the presence of a test compounds compared to the corresponding conversion in the control study was estimated using high pressure liquid chromatography (HPLC) with radiochemical detection. The results of this assay as IC50 values for microsomes derived from human prostate tissue are show in Table 1.

| SMILES | IC50 [nM] |
| --- | --- |
| CC(C)(C)NC(=O)[C@H]1CC[C@H]2[C@@H]3Cn4ccc5c4[C@](C)(CCC5=O)[C@H]3CC[C@]12C [Compound 3, 17β-N-t-Butylcarbamoyl-6-azaandrost-4,6-etheno-4-en-3-one] | 10 to 100 |
| CCN(CC)C(=O)[C@H]1CC[C@H]2[C@@H]3Cn4ccc5c4[C@](C)(CCC5=O)[C@H]3CC[C@]12C [Compound 2, 17β-N,N-Diethylcarbamoyl-6-azaandrost-4,6-etheno-4-en-3-one] | 10 to 100 |
| CCN(CC)C(=O)[C@H]1CC[C@H]2[C@@H]3Cn4nnc5c4[C@](C)(CCC5=O)[C@H]3CC[C@]12C [Compound 1, 17β-N,N-Diethylcarbamoyl-6-azaandrost-4,6-diazo-4-en-3-one] | 100 to 1000 |
| CC(C)(C)NC(=O)[C@H]1CC[C@H]2[C@@H]3CN4CCCCC5=C4[C@](C)(CCC5=O)[C@H]3CC[C@]12C [Compound 4, 17β-N-t-Butylcarbamoyl-6-azaandrost-4,6-butano-4-en-3-one] | 10 to 100 |
